Reference: patent US11033569B2, “Compounds,Compositions, and methods for the treatment of disease” (Sperovie Biosciences, Inc., priority 2016, dated 2021)
“Also recorded” adds a separate entry of the source.

Assays:
CT26 colon cancer = test: Syngeneic CT26 colon cancer mouse model; type: in vivo
[1] = tested on: A20 mouse B cell lymphoma tumor cells; test: Apoptosis-related genes and ISGs in A20 mouse B cell lymphoma tumor cells; type: cell-based; conditions: compared with 2′3′-cGAMP
A20 lymphoma = test: Syngeneic A20 lymphoma mouse model; type: in vivo; conditions: for tumor growth upon re-challenge with tumor cells: compared with control
[2] = tested on: STING-R238A and STING-Y167A; test: STING loss-of-function mutants, STING-dependent IFN response; type: cell-based
[3] = Immunohistochemistry on tissues from treated mice; type: in vivo
THP1 cells and PBMCs [4] = test: Caspase-Glo 3/7 apoptosis assay, THP1 vs. PBMCs; type: cell-based; conditions: Lipofectamine LTX, 20 h
Description: The Apoptosis in THP1 cells and PBMCs was assessed using Caspase-Glo® 3/7 Assay (Promega). […] The caspase-3 and -7 activity was measured by using a proluminescent caspase-3/7 substrate that contains the tetrapeptide sequence DEVD which will be cleaved to release aminoluciferin, a substrate of luciferase used in the production of light. After incubation for 20 h, Apoptotic activity was assessed by measure levels of aminoluciferin. % Apoptosis was calculated from fold change in luminescence compared to DMSO treated sample.

[5] = tested on: tumor cells and THP1 cells; test: Tumor cell growth, high-content image-based approach
[6] = tested on: CD8+ T cells, CD4+ T cells, and MDSCs; test: Flow cytometry of immune cells in spleen, lymph nodes and blood; type: in vivo; conditions: lymph nodes and blood on day 19, compared with vehicle
THP1 cells = test: Caspase-Glo 3/7 apoptosis assay in THP1 cells; type: cell-based; conditions: THP1, Lipofectamine LTX, 20 h
Description: The Apoptosis in THP1 cells was assessed using Caspase-Glo® 3/7 Assay (Promega). […] The caspase-3 and -7 activity was measured by using a pro-luminescent caspase-3/7 substrate that contains the tetrapeptide sequence DEVD which is cleaved to release amino-luciferin, a substrate of luciferase used in the production of light. After incubation for 20 h, Apoptotic activity was assessed by measuring levels of amino-luciferin. % Apoptosis was calculated from fold-change in luminescence compared to DMSO-treated sample. CC50 values are generated by curve fit in Xlfit.

Tumor cells = test: Tumor cell growth inhibition (DAPI imaging, ImageXpress); type: cell-based; conditions: once daily for 3 days, no lipofectamine
Description: Tumor cells in 96-well plate were treated once daily with Cmd 1 (no lipofectamine) or recombinant IFN (U-IFN) for 3 days. Cells were fixed with 1% paraformaldehyde and stained with DAPI. Cells were automatically imaged on ImageXpress and total number of survival cells were analyzed using MetaXpress software. Results are shown as total number of cells per group or % reduction calculated by normalizing to DMSO treated cells.

[7] = tested on: human natural killer (NK) cells; test: Human natural killer (NK) cell activation; type: cell-based
[8] = tested on: panel of normal cell lines; test: Cytotoxicity in a panel of normal cell lines; type: cell-based
STING [9] = biological target: T1, STING (Homo sapiens, UniProt Q86WV6); test: STING dependence of cell death; type: cell-based
T1 construct: host or cells: SZ14 HEK293 cells stably expressing ISG54 ISRE-luc reporter
T1 sequence (Q86WV6 whole entry): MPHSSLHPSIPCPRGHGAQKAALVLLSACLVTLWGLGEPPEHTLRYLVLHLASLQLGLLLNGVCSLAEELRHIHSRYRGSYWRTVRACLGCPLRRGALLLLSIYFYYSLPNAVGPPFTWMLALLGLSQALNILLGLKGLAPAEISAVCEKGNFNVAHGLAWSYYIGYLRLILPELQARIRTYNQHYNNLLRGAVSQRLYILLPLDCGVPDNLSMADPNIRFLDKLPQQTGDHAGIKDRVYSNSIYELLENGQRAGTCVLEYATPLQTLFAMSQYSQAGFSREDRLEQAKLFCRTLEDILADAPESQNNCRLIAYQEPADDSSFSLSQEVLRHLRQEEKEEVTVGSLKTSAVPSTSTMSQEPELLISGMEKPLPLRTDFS

[10] = tested on: mouse lymphoma cell line A20; test: Apoptosis in mouse lymphoma cell line A20; type: cell-based; conditions: A20 cells
[11] = biological target: STING-HAQ polymorphic variant (Homo sapiens, UniProt Q86WV6, G230A/H232R/R293Q/R71H); test: Activation of STING-HAQ polymorphic variant; type: cell-based; conditions: major STING-HAQ polymorphic variant in humans
STING-HAQ polymorphic variant, sequence (Q86WV6 whole entry R71H/G230A/H232R/R293Q): as the sequence (Q86WV6 whole entry) above, with R71H, G230A, H232R, R293Q counted along it

STING [12] = biological target: T1, STING; test: STING binding / type I IFN signaling (ISRE-luciferase); type: cell-based; conditions: similar to 2′,3′-cGAMP
Description: SZ14 HEK293 cells stably expressing the ISG54 ISRE-luc reporter gene were treated with compound exemplary compounds Cmd 1, 2′ 3-cGAMP (natural STING ligand), or DMSO in the presence of digitonin for 5-6 hrs. ISRE-luciferase activity was determined and normalized to DMSO treated cells (mean±standard deviation of triplicate wells per stimulant).

mouse macrophages = test: Type I IFN signaling in mouse macrophages; type: cell-based
Description: Activity of secreted luciferase in cell culture supernatant was measured using Invivogen Quanti-luc. Data are shown as fold induction over DMSO treated cells (mean±standard deviation of triplicate wells per stimulant).

mouse melanoma cells = test: Apoptosis of mouse melanoma cells; type: cell-based
[13] = tested on: mouse A20 B cell lymphoma tumor cells; test: Inhibition of mouse A20 B cell lymphoma tumor cells; conditions: FIGS. 48A-48D
STING [14] = biological target: T1, STING; test: Gel shift assay; type: binding; conditions: gel shift with fluorescent close structural analog of Cmd 1
[15] = tested on: IRF-type I and type III IFN response; test: IRF-type I and type III IFN response; type: cell-based
THP1 cells and PBMCs [16] = test: Gene expression of ISGs and PRRs in THP1 and PBMCs (real time PCR); type: cell-based; conditions: 5 uM, Lipofectamine LTX, 20 h
Description: (§1) After incubation for 20 h, RNA was extracted and gene expression of different Interferon Stimulated Genes (ISGs) and various Pattern Recognition Receptors (PRRs) was evaluated by real time PCR. Fold Induction was calculated by ΔΔct method.
as §1

human monocytes = test: Activity in human monocytes; type: cell-based; conditions: human monocytes (FIG. 36A)
STING [17] = biological target: T2, STING (Homo sapiens, UniProt Q86WV6, G230A/H232R/R293Q/R71H); test: Role of STING palmitoylation in THP1 cells; type: cell-based
T2 construct: endogenous in cells; host or cells: THP1 cells
T2 sequence (Q86WV6 whole entry R71H/G230A/H232R/R293Q): as the sequence (Q86WV6 whole entry) above, with R71H, G230A, H232R, R293Q counted along it

CCCCCCCCCCOc1ccc(C(=O)Oc2ccc(CSP3(=O)OC[C@H]4O[C@@H](n5cnc6c(N)ncnc65)[C@H](F)[C@@H]4OP(=O)(O)OC[C@H]4O[C@@H](n5ccc(=O)[nH]c5=O)[C@H](F)[C@@H]4O3)cc2)cc1.N (stereo partly drawn) [Cmd 1]
abscopal antitumoral activity, tumor volume left and right flank (CT26 colon cancer; administered intratumorally, 13 days post initiation treatment, vs vehicle): considerable tumor growth inhibition
survival rate (CT26 colon cancer; combination therapy with an anti-CTLA4 antibody): significantly improve the survival rate
tumor growth (CT26 colon cancer; doses 10 μg, 30 μg, and 100 μg, vs vehicle): considerable tumor growth inhibition at all three doses
tumor growth (CT26 colon cancer; intratumoral administration, vs vehicle (FIG. 79)): considerable tumor growth inhibition
tumor growth (CT26 colon cancer; intratumoral administration, vs vehicle, vehicle and Ethanol (FIG. 80)): considerable tumor growth inhibition
survival rate (CT26 colon cancer; monotherapy): significantly improve the survival rate
tumor growth (CT26 colon cancer; syngeneic CT26 colon cancer model (FIG. 62)): highly effective in inhibiting tumor growth
BAX/BCL2 ratio [1]: higher BAX/BCL2 ratio
survival rate (A20 lymphoma; combination therapy with cyclophosphamide): significantly improve the survival rate
tumor-free survival (A20 lymphoma; in combination with cyclophosphamide): results in tumor-free survival
survival rate (A20 lymphoma; monotherapy): significantly improve the survival rate
tumor growth (A20 lymphoma; monotherapy, compared with vehicle): potently inhibits lymphoma tumor growth; also recorded: considerable tumor growth inhibition; also recorded: inhibit mouse A20 B cell lymphoma tumor cells
migration of CD8 T cells into the tumor site (immunohistochemistry) (A20 lymphoma; tumor tissue, vs vehicle): induces migration of CD8 T into the tumor site
migration of NK cells into the tumor site (anti-granzyme B immunohistochemistry) (A20 lymphoma; tumor tissue, vs vehicle): induces migration of NK cells into the tumor site
migration of macrophages into the tumor site (anti-F4/80 immunohistochemistry) (A20 lymphoma; tumor tissue, vs vehicle): induces migration of macrophages into the tumor site
tumor growth upon re-challenge with tumor cells (A20 lymphoma; tumor-free mice after Cmd 1 + cyclophosphamide treatment): no tumor growth
tumor growth upon re-challenge with tumor cells (A20 lymphoma; tumor-free mice after Cmd 1 treatment): no tumor growth
dependence of STING activation on residues R238 and Y167 [2]: critical
correlation of anti-tumor activity with immune response [3]: correlates with the induction of the innate and adaptive immune response
selectivity of apoptosis induction THP1 vs. PBMCs (THP1 cells and PBMCs [4]): selective induction of apoptosis
anti-tumor activity ([5]; high-content image-based approach (FIG. 49)): anti-tumor activity
STING dependence of tumor cell growth inhibition ([5]; tumor cells and THP1 cells): STING dependent
tumor cell growth ([5]; tumor cells and THP1 cells, high-content image-based approach): inhibits tumor cell growth
induction of CD8+ T cells, CD4+ T cells, and MDSCs [6]: increase in CD8+ T cells, CD4+ T cells, and MDSCs
apoptosis (THP1 cells): Causes Cell Death by Apoptosis
tumor cell growth (Tumor cells): Inhibits Tumor Cell Growth
NK cell activation [7]: activates human natural killer (NK) cells
IFN-γ production ([7]; human NK cells): induces IFN-γ production
cytotoxicity [8]: non-cytotoxic
STING dependence of induction of cell death (STING [9]): STING-mediated
apoptosis [10]: induces apoptosis
activation of STING-HAQ variant [11]: capable of activating
STING binding and type 1 IFN signaling (STING [12]): binds to STING to activate type 1 IFN signaling
activity relative to natural STING ligand 3′,3′-cGAMP (mouse macrophages; mouse macrophages (FIG. 36B)): more active
activation of type 1 IFN signaling (mouse macrophages; mouse macrophages, similar to 2′,3′-cGAMP): highly active
apoptosis (mouse melanoma cells): causes apoptosis
inhibition of tumor cells [13]: inhibits mouse A20 B cell lymphoma tumor cells
binding to STING (STING [14]): binds to STING
IRF-type I and type III IFN response [15]: strongly activates
induction of ISG and PRR-associated genes, THP1 compared to PBMCs (THP1 cells and PBMCs [16]): selective and enhanced induction of ISG and PRR-associated genes
activity relative to natural STING ligand 3′,3′-cGAMP (human monocytes): more active
involvement of STING palmitoylation in activation of NF-κB and IRF-type I interferon response (STING [17]): palmitoylation of STING is involved
